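Interpolation was linear, between the two tested concentrations surrounding the appropriate level; five concentrations were tested over 48 hours in 96-well plates. At the GI50, growth is halved.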 Activity calls are given as the source filed them. Rule as the data show it: active = GI50 up to about 1.1 µM and inactive = higher.
Experiments:
Assay in all cases: DTP human tumour cell line panel, 48 h
[1] = test system: OVCAR-5
[2] = test system: A549
[3] = test system: U-251
[4] = test system: Malme-3M
[5] = test system: SNB-19
[6] = test system: CCRF-CEM
[7] = test system: MOLT-4
[8] = test system: LOX IMVI
[9] = test system: HOP-18
[10] = test system: SW-620
[11] = test system: SF-295
[12] = test system: SK-MEL-5
[13] = test system: LXFL 529
[14] = test system: COLO 205
[15] = test system: 786-0
[16] = test system: TK-10
[17] = test system: SN12C
[18] = test system: DMS-273
[19] = test system: HCT-15
[20] = test system: UO-31
[21] = test system: HOP-62
[22] = test system: NCI-H226
[23] = test system: M19-MEL
[24] = test system: RXF 393
[25] = test system: EKVX
[26] = test system: K562
[27] = test system: HCT-116
[28] = test system: NCI-H522
[29] = test system: SK-OV-3
[30] = test system: UACC-62
[31] = test system: SF-539
[32] = test system: KM-20L2
[33] = test system: NCI-H460
[34] = test system: SK-MEL-28
[35] = test system: A498
[36] = test system: ACHN
[37] = test system: OVCAR-4
[38] = test system: OVCAR-8
[39] = test system: HOP-92
[40] = test system: CAKI-1
[41] = test system: SNB-78
[42] = test system: M14
[43] = test system: HCC 2998
[44] = test system: RXF 631
[45] = test system: HL-60
[46] = test system: SR
[47] = test system: DMS-114
[48] = test system: IGROV-1
[49] = test system: SNB-75
[50] = test system: SF-268
[51] = test system: DLD-1
[52] = test system: SK-MEL-2
[53] = test system: UACC-257
[54] = test system: HT-29
[55] = test system: NCI-H23
[56] = test system: OVCAR-3
[57] = test system: XF498
[58] = test system: KM12
[59] = test system: RPMI-8226

SMILES: O=C1NC(=O)C(CCC(=O)c2ccc3ccccc3c2)C(=O)N1
- GI50 [1]: > 100 µM (inactive)
- GI50 [2]: > 100 µM (inactive)
- GI50 [3]: > 100 µM (inactive)
- GI50 [4]: > 100 µM (inactive)
- GI50 [5]: > 100 µM (inactive)
- GI50 [6]: > 100 µM (inactive)
- GI50 [7]: > 100 µM (inactive)
- GI50 [8]: > 100 µM (inactive)
- GI50 [9]: > 100 µM (inactive)
- GI50 [10]: > 100 µM (inactive)
- GI50 [11]: > 100 µM (inactive)
- GI50 [12]: > 100 µM (inactive)
- GI50 [13]: > 100 µM (inactive)
- GI50 [14]: > 100 µM (inactive)
- GI50 [15]: > 100 µM (inactive)
- GI50 [16]: > 100 µM (inactive)
- GI50 [17]: > 100 µM (inactive)
- GI50 [18]: > 100 µM (inactive)
- GI50 [19]: > 100 µM
- GI50 [20]: > 100 µM (inactive)
- GI50 [21]: > 100 µM (inactive)
- GI50 [22]: > 100 µM (inactive)
- GI50 [23]: > 100 µM (inactive)
- GI50 [24]: > 100 µM (inactive)
- GI50 [25]: > 100 µM (inactive)
- GI50 [26]: > 100 µM (inactive)
- GI50 [27]: > 100 µM (inactive)
- GI50 [28]: 20.1 µM (inactive)
- GI50 [29]: > 100 µM (inactive)
- GI50 [30]: > 100 µM (inactive)
- GI50 [31]: > 100 µM (inactive)
- GI50 [32]: > 100 µM (inactive)
- GI50 [33]: > 100 µM (inactive)
- GI50 [34]: > 100 µM (inactive)
- GI50 [35]: > 100 µM (inactive)
- GI50 [36]: > 100 µM (inactive)
- GI50 [37]: > 100 µM (inactive)
- GI50 [38]: > 100 µM (inactive)
- GI50 [39]: > 100 µM (inactive)
- GI50 [40]: > 100 µM (inactive)
- GI50 [41]: > 100 µM (inactive)
- GI50 [42]: > 100 µM (inactive)
- GI50 [43]: > 100 µM (inactive)
- GI50 [44]: > 100 µM (inactive)
- GI50 [45]: > 100 µM (inactive)
- GI50 [46]: > 100 µM (inactive)
- GI50 [47]: > 100 µM (inactive)
- GI50 [48]: > 100 µM (inactive)
- GI50 [49]: > 100 µM (inactive)
- GI50 [50]: > 100 µM (inactive)
- GI50 [51]: > 100 µM (inactive)
- GI50 [52]: > 100 µM (inactive)
- GI50 [53]: > 100 µM (inactive)
- GI50 [54]: > 100 µM (inactive)
- GI50 [55]: > 100 µM (inactive)
- GI50 [56]: > 100 µM (inactive)
- GI50 [57]: > 100 µM (inactive)
- GI50 [58]: > 100 µM (inactive)

SMILES: CC1O[C@@H]2CCCCC(=O)[C@]2(C)[C@H]1C (stereo partly specified)
- GI50 [1]: > 100 µM (inactive)
- GI50 [2]: > 100 µM (inactive)
- GI50 [59]: > 100 µM (inactive)
- GI50 [3]: > 100 µM (inactive)
- GI50 [4]: > 100 µM (inactive)
- GI50 [5]: > 100 µM (inactive)
- GI50 [6]: > 100 µM (inactive)
- GI50 [7]: > 100 µM (inactive)
- GI50 [8]: > 100 µM (inactive)
- GI50 [9]: > 100 µM (inactive)
- GI50 [10]: > 100 µM (inactive)
- GI50 [11]: > 100 µM (inactive)
- GI50 [12]: > 100 µM (inactive)
- GI50 [13]: > 100 µM (inactive)
- GI50 [14]: > 100 µM (inactive)
- GI50 [15]: > 100 µM (inactive)
- GI50 [16]: > 100 µM (inactive)
- GI50 [17]: > 100 µM (inactive)
- GI50 [18]: > 100 µM (inactive)
- GI50 [19]: > 100 µM
- GI50 [20]: > 100 µM (inactive)
- GI50 [21]: > 100 µM (inactive)
- GI50 [22]: > 100 µM (inactive)
- GI50 [23]: > 100 µM (inactive)
- GI50 [24]: 70.3 µM (inactive)
- GI50 [25]: > 100 µM (inactive)
- GI50 [26]: > 100 µM (inactive)
- GI50 [27]: > 100 µM (inactive)
- GI50 [29]: > 100 µM (inactive)
- GI50 [30]: > 100 µM (inactive)
- GI50 [32]: > 100 µM (inactive)
- GI50 [33]: > 100 µM (inactive)
- GI50 [34]: > 100 µM (inactive)
- GI50 [36]: > 100 µM (inactive)
- GI50 [37]: > 100 µM (inactive)
- GI50 [38]: > 100 µM (inactive)
- GI50 [39]: > 100 µM (inactive)
- GI50 [40]: > 100 µM (inactive)
- GI50 [41]: > 100 µM (inactive)
- GI50 [42]: > 100 µM (inactive)
- GI50 [43]: > 100 µM (inactive)
- GI50 [44]: > 100 µM (inactive)
- GI50 [45]: > 100 µM (inactive)
- GI50 [47]: > 100 µM (inactive)
- GI50 [48]: > 100 µM (inactive)
- GI50 [49]: > 100 µM (inactive)
- GI50 [51]: > 100 µM (inactive)
- GI50 [52]: > 100 µM (inactive)
- GI50 [53]: > 100 µM (inactive)
- GI50 [54]: > 100 µM (inactive)
- GI50 [56]: > 100 µM (inactive)
- GI50 [57]: > 100 µM (inactive)
- GI50 [58]: > 100 µM (inactive)

— ChEMBL document CHEMBL1201862, “PubChem BioAssay data set” (2004)
